Data from US20050244328A1 (priority 2002, published 2005).
Where “and” joins values, the source holds several entries; their conditions need not be identical. Equal entries are not always repeated. Where two headings read alike, the source gives them in different places.

How the values were obtained:
Silversides = assay: In-house silverside bioassay of ClO2 treated effluent; assay type: in vivo, Menidia beryllina; conditions: numerous in-house tests, WWTP 1
M. beryllina = assay: Bioassay of ClO2 treated WWTP 2 effluent by Laboratory 4, silverside minnow; assay type: in vivo, Menidia beryllina; conditions: for Sample survival % of M. berylina: grabs Sep. 11, 2002 10:00, 15:30, 22:00, Sep. 12, 2002 10:00
From the text: (§1) With the success of the above bioassay series that began on Aug. 20, 2002, it was concluded that a third party test was needed to verify research data. Water grabs from the Anastasia Island Treatment Facility, taken on Aug. 28, 2002, were delivered to Laboratory 4, an independent bioassay laboratory. Additional testing of the water sent to Laboratory 4 labs was also forwarded to another contract lab to document the water quality during the sample periods for the bioassays. It should be noted here that the plant was operating under their normal operating conditions and accepting both landfill leachate as well as septic tank and portable toilet waste. These were however pumped into a storage tank and then trickled into the influent stream at the headworks.
(§2) The complete toxicological study as reference is included as attachment at the end of this study.
(§3) With the successful bioassay conducted by the Laboratory 4 labs, a second series of water samples was taken for the repeat bioassay. These samples were taken on Sep. 11, 2002 and forwarded to Laboratory 4 labs on Sep. 12, 2002 to conduct the bioassay. The results of this test for both the water quality toxicity and the bioassay are illustrated in the Tables 13, 14 and 15.
(§4) The complete toxicological results are provided at the end of this study as attachments.

M. bahia = assay: Bioassay of ClO2 treated WWTP 2 effluent by Laboratory 4, mysid shrimp; assay type: in vivo, Mysidopsis bahia; conditions: grabs Aug. 28, 2002 10:15, 16:00, 22:00, Aug. 29, 2002 09:30
From the text: as §1, §2, §3, §4

Staphylococcus aureus = conditions: 1 ppm of ClO2; contact time 60 s; cited from earlier work
Lactobacillus Brevis = conditions: contact time 300 s, cited from earlier work
Pseudomonas aeruginosa = conditions: 1 ppm of ClO2; contact time 60 s; cited from earlier work
[1] = tested on: Penicillum expansum (mould); conditions: cited from earlier work
Pediococcus Damnosus = conditions: cited from earlier work
[2] = tested on: Pectinatus cervisiiphilus; conditions: 0.1 ppm of ClO2; contact time 5 min; cited from earlier work
Mysid shrimp = assay: In-house mysid shrimp acute bioassay of treated effluent; conditions: for surviving Mysid shrimp DAY 1 (bowls A, B) / surviving Mysid shrimp DAY 2 (bowls A, B) / surviving Mysid shrimp DAY 3 (bowls A, B) / surviving Mysid shrimp DAY 4 (bowls A, B): 10 initial per bowl, set up Aug. 20, 2002
Fecal Coliform = assay: Fecal coliform kill in ClO2-dosed post clarifier effluent, side stream pilot at WWTP 1 (Membrane Filter SM 9222D)

## Chlorine dioxide [ClO2]
Silversides
  survival of Silversides post CLO2 dosing: always survived
M. beryllina; 6.25 % Effluent
  Sample survival % of M. berylina: 100%
M. beryllina; 12.5 % Effluent
  Sample survival % of M. berylina: 100%
M. beryllina; 25 % Effluent
  Sample survival % of M. berylina: 100% and 95%
M. beryllina; 50 % Effluent
  Sample survival % of M. berylina: 95% and 100%
M. beryllina; 100 % Effluent
  Sample survival % of M. berylina: 95% and 100%
M. beryllina; ClO2 treated effluent grabs Aug. 28, 2002 10:15, 16:00, 22:00, Aug. 29, 2002 09:30
  M. beryllina % survival: 100%
M. bahia; 6.25 % Effluent
  Sample survival % of M. bahia: 100%
M. bahia; 12.5 % Effluent
  Sample survival % of M. bahia: 95% and 100%
M. bahia; 25 % Effluent
  Sample survival % of M. bahia: 100%
M. bahia; 50 % Effluent
  Sample survival % of M. bahia: 95% and 100%
M. bahia; 100 % Effluent
  Sample survival % of M. bahia: 100%
Staphylococcus aureus
  Inactivation in %: 99.999%
Lactobacillus Brevis; 0.15 ppm of ClO2
  Inactivation in %: 99.9%
Lactobacillus Brevis; 1 ppm of ClO2
  Inactivation in %: >99.999%
Pseudomonas aeruginosa
  Inactivation in %: >99.999%
[1]; 0.5 ppm of ClO2, contact time 60 min
  Inactivation in %: 99.99%
[1]; 2 ppm of ClO2, contact time 20 min
  Inactivation in %: 99.999%
Pediococcus Damnosus; 0.15 ppm of ClO2, contact time 20 min
  Inactivation in %: 99.99%
Pediococcus Damnosus; 0.3 ppm of ClO2, contact time 5 min
  Inactivation in %: 99.99%
Pediococcus Damnosus; 1 ppm of ClO2, contact time 5 min
  Inactivation in %: 99.999%
[2]
  Inactivation in %: 99.9%
Mysid shrimp; 0.64 PPM DOSE, 25% solution
  survival rate of Mysid Shrimp 24 HR: 100
  survival rate of Mysid Shrimp 48 HR: 100
  survival rate of Mysid Shrimp 72 HR: 90
  survival rate of Mysid Shrimp 96 HR: 90
  surviving Mysid shrimp DAY 1 (bowls A, B): 10
  surviving Mysid shrimp DAY 2 (bowls A, B): 10
  surviving Mysid shrimp DAY 3 (bowls A, B): 9
  surviving Mysid shrimp DAY 4 (bowls A, B): 9
Mysid shrimp; 0.64 PPM DOSE, 50% solution
  survival rate of Mysid Shrimp 24 HR: 100
  survival rate of Mysid Shrimp 48 HR: 100
  survival rate of Mysid Shrimp 72 HR: 100
  survival rate of Mysid Shrimp 96 HR: 100
  surviving Mysid shrimp DAY 1 (bowls A, B): 10
  surviving Mysid shrimp DAY 2 (bowls A, B): 10
  surviving Mysid shrimp DAY 3 (bowls A, B): 10
  surviving Mysid shrimp DAY 4 (bowls A, B): 10
Mysid shrimp; 0.64 PPM DOSE, 75% solution
  survival rate of Mysid Shrimp 24 HR: 100
  survival rate of Mysid Shrimp 48 HR: 100
  survival rate of Mysid Shrimp 72 HR: 95
  survival rate of Mysid Shrimp 96 HR: 90
  surviving Mysid shrimp DAY 1 (bowls A, B): 10
  surviving Mysid shrimp DAY 2 (bowls A, B): 10
  surviving Mysid shrimp DAY 3 (bowls A, B): 9 and 10
  surviving Mysid shrimp DAY 4 (bowls A, B): 8 and 10
Mysid shrimp; 0.64 PPM DOSE, 100% solution
  survival rate of Mysid Shrimp 24 HR: 100
  survival rate of Mysid Shrimp 48 HR: 100
  survival rate of Mysid Shrimp 72 HR: 85
  survival rate of Mysid Shrimp 96 HR: 70
  surviving Mysid shrimp DAY 1 (bowls A, B): 10
  surviving Mysid shrimp DAY 2 (bowls A, B): 10
  surviving Mysid shrimp DAY 3 (bowls A, B): 7 and 10
  surviving Mysid shrimp DAY 4 (bowls A, B): 5 and 9
Mysid shrimp; 1.05 PPM DOSE, 25% solution
  survival rate of Mysid Shrimp 24 HR: 100
  survival rate of Mysid Shrimp 48 HR: 100
  survival rate of Mysid Shrimp 72 HR: 100
  survival rate of Mysid Shrimp 96 HR: 100
  surviving Mysid shrimp DAY 1 (bowls A, B): 10
  surviving Mysid shrimp DAY 2 (bowls A, B): 10
  surviving Mysid shrimp DAY 3 (bowls A, B): 10
  surviving Mysid shrimp DAY 4 (bowls A, B): 10
Mysid shrimp; 1.05 PPM DOSE, 50% solution
  survival rate of Mysid Shrimp 24 HR: 100
  survival rate of Mysid Shrimp 48 HR: 100
  survival rate of Mysid Shrimp 72 HR: 95
  survival rate of Mysid Shrimp 96 HR: 95
  surviving Mysid shrimp DAY 1 (bowls A, B): 10
  surviving Mysid shrimp DAY 2 (bowls A, B): 10
  surviving Mysid shrimp DAY 3 (bowls A, B): 10 and 9
  surviving Mysid shrimp DAY 4 (bowls A, B): 9 and 10
Mysid shrimp; 1.05 PPM DOSE, 75% solution
  survival rate of Mysid Shrimp 24 HR: 100
  survival rate of Mysid Shrimp 48 HR: 100
  survival rate of Mysid Shrimp 72 HR: 100
  survival rate of Mysid Shrimp 96 HR: 95
  surviving Mysid shrimp DAY 1 (bowls A, B): 10
  surviving Mysid shrimp DAY 2 (bowls A, B): 10
  surviving Mysid shrimp DAY 3 (bowls A, B): 10
  surviving Mysid shrimp DAY 4 (bowls A, B): 10 and 9
Mysid shrimp; 1.05 PPM DOSE, 100% solution
  survival rate of Mysid Shrimp 24 HR: 100
  survival rate of Mysid Shrimp 48 HR: 100
  survival rate of Mysid Shrimp 72 HR: 90
  survival rate of Mysid Shrimp 96 HR: 70
  surviving Mysid shrimp DAY 1 (bowls A, B): 10
  surviving Mysid shrimp DAY 2 (bowls A, B): 10 and 9
  surviving Mysid shrimp DAY 3 (bowls A, B): 8 and 10
  surviving Mysid shrimp DAY 4 (bowls A, B): 6 and 8
Mysid shrimp; 100% effluent, 10 shrimp per bowl, set up Aug. 13, 2002, ClO2 samples 14:00 and 15:00, bowls A, B, landfill leachate slug in plant
  No. of surviving shrimp DAY 2: 10 and 9 and 6
Mysid shrimp; 100% effluent, set up Aug. 13, 2002, ClO2 samples 14:00 and 15:00
  AVG (% survival of bowls A and B): 40%
Mysid shrimp; side stream, after adjustments to the chlorine dioxide generator (weaker hypochlorite solution)
  mysid shrimp bioassay outcome: successful (acceptable end-point survival)
Fecal Coliform; 1.8 ppm, 5 min contact, pH 7.20, Feb. 6, 2001
  Fecal Coliform: <1 #cfu/100 mls
Fecal Coliform; 1.8 ppm, 5 min contact, pH 7.20, Feb. 7, 2001
  Fecal Coliform: <1 #cfu/100 mls
Fecal Coliform; 2.23 ppm, 5 min contact, pH 7.20, Feb. 6, 2001
  Fecal Coliform: <1 #cfu/100 mls
Fecal Coliform; 2.23 ppm, 5 min contact, pH 7.20, Feb. 7, 2001
  Fecal Coliform: <1 #cfu/100 mls
Fecal Coliform; 3.0 ppm, 5 min contact, pH 7.20, Feb. 6, 2001
  Fecal Coliform: <1 #cfu/100 mls
Fecal Coliform; 3.0 ppm, 5 min contact, pH 7.20, Feb. 7, 2001
  Fecal Coliform: <1 #cfu/100 mls
Fecal Coliform; 3.97 ppm, 5 min contact, pH 7.20, Feb. 6, 2001
  Fecal Coliform: <1 #cfu/100 mls
Fecal Coliform; 3.97 ppm, 5 min contact, pH 7.20, Feb. 7, 2001
  Fecal Coliform: <1 #cfu/100 mls
Fecal Coliform; 5% chlorite solution, ClO2 dose rate 3.0 mg/ltr, 5 minute contact, Jan. 24, 2001
  Fecal Coliform: <1 #cfu/100 mls
Fecal Coliform; 5.0 ppm, 5 min contact, pH 7.20, Feb. 6, 2001
  Fecal Coliform: <1 #cfu/100 mls
Fecal Coliform; 5.0 ppm, 5 min contact, pH 7.20, Feb. 7, 2001
  Fecal Coliform: <1 #cfu/100 mls
Fecal Coliform; Injector 1.8 ppm, 5 min contact, pH 7.30, Feb. 5, 2001
  Fecal Coliform: <1 #cfu/100 mls
Fecal Coliform; Injector 2.23 ppm, 5 min contact, pH 7.30, Feb. 5, 2001
  Fecal Coliform: <1 #cfu/100 mls
Fecal Coliform; Injector 3.0 ppm, 5 min contact, pH 7.30, Feb. 5, 2001
  Fecal Coliform: <1 #cfu/100 mls
Fecal Coliform; Injector 3.97 ppm, 5 min contact, pH 7.30, Feb. 5, 2001
  Fecal Coliform: <1 #cfu/100 mls
Fecal Coliform; Injector 5.0 ppm, 5 min contact, pH 7.30, Feb. 5, 2001, (*) bits of algae in samples
  Fecal Coliform: 1 (*) #cfu/100 mls and <1 #cfu/100 mls
Fecal Coliform; further testing
  dosing rate at which fecal coliform kills were also achieved (as low as): 0.075 ppm
Fecal Coliform; lower dosing rate of 1.8 ppm
  fecal coliform kill: effectively killed
Fecal Coliform; lower dosing rates
  time required for a complete fecal kill: more than 2 minutes
